Laboratory results published in PMC8622415, “Inhibitory Effect of Chlorogenic Acid Analogues Comprising Pyridine and Pyrimidine on α-MSH-Stimulated Melanogenesis and Stability of Acyl Analogues in Methanol” (Pharmaceuticals, 2021).
Values joined by “and” are separate entries in the source; they are usually repeats but may differ in a detail not shown here. Identical values can stand only once. Like-named read-outs stand apart in the source and are kept apart here.

What was measured:
[1] = system: B16 melanoma cells; test: Inhibition of α-MSH-stimulated melanin formation (melanin measurement); type: cell-based, Mouse; details: α-MSH 10.0 nM, melanin released into medium, absorbance 405 nm, read-out: IC50, inhibition of α-MSH-induced melanogenesis
Description: Mouse melanoma B16 cells were cultured in a 96-well culture plate (2.5 × 10^3 cells/well). Culture media were washed from each culture plates after 24 h and treated with freshly prepared 10% FBS-DMEM medium, various concentrations (such as 0.5, 1.0, 3.0, 10.0, 30.0, and 100.0 µM) of compound samples, and stimulants (α-MSH, 10.0 nM). Then, it was incubated at 37 °C for 72 h, and the amount of melanin released into the medium was determined by measuring the absorbance at wavelength of 405 nm using spectrophotometer (Molecular Device, San Jose, CA, USA). The absorbance of stimulated cells using α-MSH was used as a control, and the inhibition level was calculated by subtracting the absorbance values of cells that were not stimulated. The absorbance values were compared with standard curves obtained with synthetic melanin. The synthetic melanin (Sigma-Aldrich, St. Louis, MO, USA) was dissolved in 0.85 M KOH-10% DMSO solution; then, it was serially diluted with 10% FBS-DMEM medium and then aliquoted into a 96-well culture plate. Then, the absorbance of melanin was measured by a spectrophotometer at 405 nm, and a standard curve was prepared. Using this value, the amount of melanin released out of the cell was directly calculated. Results obtained by three or more sets of experiments were expressed as mean ± standard error.

[2] = Stability of CGA acyl analogues in methanol solution (HPLC); type: physicochemical; details: 25 °C
Description: The stability of the synthesized acyl analogues was measured in methanol, since the acetyl analogue of CGA was highly unstable in methanol solution. First, 10 mg of the sample was dissolved in 2 mL of methanol and stored at 25 °C. Then, purity was analyzed using HPLC (Shimadzu LC solution, Kyoto, Japan) for 28 days. The samples in methanol solution were diluted 10 times in the HPLC mobile phase ((A) 0.5% formic acid in H2O (B) 0.5% formic acid in acetonitrile (ACN), A/B = 20/80) and injected in HPLC column (inertsil ODS-3V C18 column (250 × 4.00 mm i.d; 5 μm)). Finally, the amount of acyl compound remaining in the solution was measured by calculating the area under the curve of the HPLC chromatogram, and the results were expressed in percentage units.

## OC[C@H]1O[C@@H](Oc2ccc(O)cc2)[C@H](O)[C@@H](O)[C@@H]1O [Arbutin, reference compound]
[1]; Mus musculus, B16, 72 h
  IC50: 380 ± 9.5 µM

## COc1ccc(-c2ccnc(NCc3ccccc3)c2)cc1OC [Compound 6a, N-Benzyl-4-(3,4-dimethoxyphenyl)pyridin-2-amine]
[1]; Mus musculus, B16, 72 h
  IC50: 17 ± 4 µM

## COc1ccc(-c2ccnc(NCc3ccc(Cl)cc3)c2)cc1OC [Compound 6b, N-(4-Chlorobenzyl)-4-(3,4-dimethoxyphenyl)pyridin-2-amine]
[1]; Mus musculus, B16, 72 h
  IC50: 4.5 ± 0.7 µM

## COc1ccc(-c2ccnc(NCc3cccc(Cl)c3)c2)cc1OC [Compound 6c, N-(3-Chlorobenzyl)-4-(3,4-dimethoxyphenyl)pyridin-2-amine]
[1]; Mus musculus, B16, 72 h
  IC50: 5 ± 1.4 µM

## COc1ccc(-c2ccnc(NCc3ccccc3Cl)c2)cc1OC [Compound 6d, N-(2-Chlorobenzyl)-4-(3,4-dimethoxyphenyl)pyridin-2-amine]
[1]; Mus musculus, B16, 72 h
  IC50: 8.5 ± 0.7 µM
[1]; 72 h
  IC50: 8 ± 1 µM

## COc1ccc(-c2ccnc(NCc3ccc(C(F)(F)F)cc3)c2)cc1OC [Compound 6e, 4-(3,4-Dimethoxyphenyl)-N-(4-(trifluoromethyl)benzyl)pyridin-2-amine]
[1]; Mus musculus, B16, 72 h
  IC50: 8.5 ± 0.7 µM

## COc1ccc(-c2ccnc(NCc3cccc(C(F)(F)F)c3)c2)cc1OC [Compound 6f, 4-(3,4-Dimethoxyphenyl)-N-(3-(trifluoromethyl)benzyl)pyridin-2-amine]
[1]; Mus musculus, B16, 72 h
  IC50: 2.5 ± 0.7 µM

## COc1ccc(-c2ccnc(NCc3ccccc3C(F)(F)F)c2)cc1OC [Compound 6g, 4-(3,4-Dimethoxyphenyl)-N-(2-(trifluoromethyl)benzyl)pyridin-2-amine]
[1]; Mus musculus, B16, 72 h
  IC50: 7.5 ± 0.7 µM

## COc1ccc(-c2ccnc(NCc3ccccc3)n2)cc1OC [Compound 10a, N-Benzyl-4-(3,4-dimethoxyphenyl)pyrimidin-2-amine]
[1]; Mus musculus, B16, 72 h
  IC50: > 100 µM

## COc1ccc(-c2ccnc(NCc3ccc(Cl)cc3)n2)cc1OC [Compound 10b, N-(4-Chlorobenzyl)-4-(3,4-dimethoxyphenyl)pyrimidin-2-amine]
[1]; Mus musculus, B16, 72 h
  IC50: 54 ± 6 µM

## COc1ccc(-c2ccnc(NCc3cccc(Cl)c3)n2)cc1OC [Compound 10c, N-(3-Chlorobenzyl)-4-(3,4-dimethoxyphenyl)pyrimidin-2-amine]
[1]; Mus musculus, B16, 72 h
  IC50: 32 ± 2 µM

## COc1ccc(-c2ccnc(NCc3ccccc3Cl)n2)cc1OC [Compound 10d, N-(2-Chlorobenzyl)-4-(3,4-dimethoxyphenyl)pyrimidin-2-amine]
[1]; Mus musculus, B16, 72 h
  IC50: 40 ± 8 µM

## COc1ccc(-c2ccnc(NCc3ccc(C(F)(F)F)cc3)n2)cc1OC [Compound 10e, 4-(3,4-Dimethoxyphenyl)-N-(4-(trifluoromethyl)benzyl)pyrimidin-2-amine]
[1]; Mus musculus, B16, 72 h
  IC50: > 100 µM

## COc1ccc(-c2ccnc(NCc3cccc(C(F)(F)F)c3)n2)cc1OC [Compound 10f, 4-(3,4-Dimethoxyphenyl)-N-(3-(trifluoromethyl)benzyl)pyrimidin-2-amine]
[1]; Mus musculus, B16, 72 h
  IC50: 20 ± 1 µM

## CCCC(=O)Oc1ccc(/C=C/C(=O)OC2CCCCC2)cc1OC(=O)CCC [Compound 13a, (E)-4-(3-(Cyclohexyloxy)-3-oxoprop-1-en-1-yl)-1,2-phenylene dibutyrate]
[2]; day 0
  Amount remaining in methanol (HPLC area): 99.3294%
[2]; day 1
  Amount remaining in methanol (HPLC area): 91.3520%
[2]; day 2
  Amount remaining in methanol (HPLC area): 85.3800%
[2]; day 3
  Amount remaining in methanol (HPLC area): 80.3685%
[2]; day 4
  Amount remaining in methanol (HPLC area): 75.4921%
[2]; day 5
  Amount remaining in methanol (HPLC area): 72.147%
[2]; day 7
  Amount remaining in methanol (HPLC area): 64.7751%
[2]; day 9
  Amount remaining in methanol (HPLC area): 59.4842%
[2]; day 11
  Amount remaining in methanol (HPLC area): 55.1819%
[2]; day 21
  Amount remaining in methanol (HPLC area): 43.3505%
[2]; day 28
  Amount remaining in methanol (HPLC area): 39% and 39.0229%
[1]; Mus musculus, B16, 72 h
  IC50: 1.1 ± 0.1 µM
[1]; 72 h
  IC50: 1 ± 0.1 µM

## CCCCCC(=O)Oc1ccc(/C=C/C(=O)OC2CCCCC2)cc1OC(=O)CCCCC [Compound 13b, (E)-4-(3-(Cyclohexyloxy)-3-oxoprop-1-en-1-yl)-1,2-phenylene dihexanoate]
[2]; day 0
  Amount remaining in methanol (HPLC area): 99.8006%
[2]; day 1
  Amount remaining in methanol (HPLC area): 93.7356%
[2]; day 2
  Amount remaining in methanol (HPLC area): 89.9637%
[2]; day 3
  Amount remaining in methanol (HPLC area): 86.8066%
[2]; day 4
  Amount remaining in methanol (HPLC area): 83.9188%
[2]; day 5
  Amount remaining in methanol (HPLC area): 82.1086%
[2]; day 7
  Amount remaining in methanol (HPLC area): 77.5962%
[2]; day 9
  Amount remaining in methanol (HPLC area): 74.0389%
[2]; day 11
  Amount remaining in methanol (HPLC area): 70.6843%
[2]; day 21
  Amount remaining in methanol (HPLC area): 58.4127%
[2]; day 28
  Amount remaining in methanol (HPLC area): 52% and 52.5500%
[1]; Mus musculus, B16, 72 h
  IC50: 1.3 ± 0.4 µM

## CC(C)(C)C(=O)Oc1ccc(/C=C/C(=O)OC2CCCCC2)cc1OC(=O)C(C)(C)C [Compound 13c, (E)-4-(3-(Cyclohexyloxy)-3-oxoprop-1-en-1-yl)-1,2-phenylene bis(2,2-dimethylpropanoate)]
[2]; day 0
  Amount remaining in methanol (HPLC area): 99.5492%
[2]; day 1
  Amount remaining in methanol (HPLC area): 99.3034%
[2]; day 2
  Amount remaining in methanol (HPLC area): 99.1518%
[2]; day 3
  Amount remaining in methanol (HPLC area): 99.0038%
[2]; day 4
  Amount remaining in methanol (HPLC area): 98.8061%
[2]; day 5
  Amount remaining in methanol (HPLC area): 98.5395%
[2]; day 7
  Amount remaining in methanol (HPLC area): 97.9332%
[2]; day 9
  Amount remaining in methanol (HPLC area): 97.4173%
[2]; day 11
  Amount remaining in methanol (HPLC area): 96.8033%
[2]; day 21
  Amount remaining in methanol (HPLC area): 95.0243%
[2]; day 28
  Amount remaining in methanol (HPLC area): 94% and 94.0833%
[1]; Mus musculus, B16, 72 h
  IC50: 1.9 ± 0.1 µM

## O=C(/C=C/c1ccc(OC(=O)C2CCCCC2)c(OC(=O)C2CCCCC2)c1)OC1CCCCC1 [Compound 13d, (E)-4-(3-(Cyclohexyloxy)-3-oxoprop-1-en-1-yl)-1,2-phenylene dicyclohexanecarboxylate]
[2]; day 0
  Amount remaining in methanol (HPLC area): 98.9750%
[2]; day 1
  Amount remaining in methanol (HPLC area): 96.9973%
[2]; day 2
  Amount remaining in methanol (HPLC area): 95.8267%
[2]; day 3
  Amount remaining in methanol (HPLC area): 94.6557%
[2]; day 4
  Amount remaining in methanol (HPLC area): 93.5713%
[2]; day 5
  Amount remaining in methanol (HPLC area): 93.0573%
[2]; day 7
  Amount remaining in methanol (HPLC area): 91.6229%
[2]; day 9
  Amount remaining in methanol (HPLC area): 90.6724%
[2]; day 11
  Amount remaining in methanol (HPLC area): 89.8768%
[2]; day 21
  Amount remaining in methanol (HPLC area): 87.5571%
[1]; Mus musculus, B16, 72 h
  IC50: 2.3 ± 0.2 µM

## CC(C)COc1ccc(/C=C/C(=O)OC2CCCCC2)cc1OCC(C)C [Compound 15, (E)-Cyclohexyl 3-(3,4-diisobutoxyphenyl)acrylate]
[1]; Mus musculus, B16, 72 h
  IC50: > 100 µM

## COc1ccc(/C=C/C(=O)OC2CCCCC2)cc1OC [Compound 17, (E)-Cyclohexyl 3-(3,4-dimethoxyphenyl)acrylate]
[1]; Mus musculus, B16, 72 h
  IC50: > 100 µM

## CC(=O)Oc1ccc(/C=C/C(=O)OC2CCCCC2)cc1OC(C)=O [Compound 18]
[2]; day 0
  Amount remaining in methanol (HPLC area): 99.5029%
[2]; day 1
  Amount remaining in methanol (HPLC area): 71.1918%
[2]; day 2
  Amount remaining in methanol (HPLC area): 55.5162%
[2]; day 3
  Amount remaining in methanol (HPLC area): 43.5699%
[2]; day 4
  Amount remaining in methanol (HPLC area): 33.7154%
[2]; day 5
  Amount remaining in methanol (HPLC area): 27.3752%
[2]; day 7
  Amount remaining in methanol (HPLC area): 16.5047%
[2]; day 9
  Amount remaining in methanol (HPLC area): 10.5572%
[2]; day 11
  Amount remaining in methanol (HPLC area): 6.9200%
[2]; day 21
  Amount remaining in methanol (HPLC area): 1.4408%
[2]; within 10 days, HPLC
  Amount decomposed in methanol solution: more than 90%

## O=c1cc(CO)occ1O [Kojic acid, reference compound]
[1]; Mus musculus, B16, 72 h
  IC50: 54 ± 1.5 µM
